# Results: patent US5098613A, “Anti-inflammatory agents” (Eli Lilly and Company, priority 1990, dated 1992)
# Structures can show the parent of a compound that is named as a salt. Where two headings read alike, the source gives them in different places.
# Biological target: T1, leukotriene B4 specific receptor on the membrane of human neutrophils (Homo sapiens, UniProt Q15722)
# T1 construct: incubating neutrophils (1×10^7 cells) with 0.1-0.2 nM ^3 H-LTB4; endogenous in cells; host or cells: human peripheral blood neutrophils (buffy coats of two blood donors)
# Experiment: Inhibition of Binding of ^3 H-LTB4 to Peripheral Human Neutrophils
# Details: for inhibition at 10 µM: read-out: LTB4 Binding Inhibition; for inhibition at 1 µM: drug concentration 10^-6 M; for inhibition at 0.1 µM: drug concentration 10^-7 M
# Experimental: The effectiveness of compounds to inhibit the binding of leukotriene B4 to a specific receptor on the membrane of human neutrophils was measured by using an adaptation of a radio-ligand binding assay developed by Goldman and Goetzl, J. Immunol., 129, 1600 (1982). Other investigators have developed similar assays (see, e.g., Kreisle, et al., J. Exp. Med., 157, 628 (1983) and Lin, et al., Prostaglandins, 28, 837 (1984)).
# Cells used in the assay were isolated by standard techniques of centrifugation on Ficol-Hypaque, dextran 70 sedimentation and hypotonic lysis. The following procedure was used. Freshly-prepared buffy coat layers from two individuals were obtained from a local blood donor center. The cells were mixed and diluted to 484 ml. with phosphate buffered saline containing heparin (10 units/ml) and heat-inactivated calf serum (5%). This was divided into 20 ml. aliquots and the aliquots layered on top of Ficoll-Paque (12 ml.). The material was then centrifuged at 500 g. for 40 minutes at room temperature. The resulting upper layer of platelets and mononuclear cells was discarded. The lower layer containing erythrocytes and neutrophils was retained. Buffer was added (1 ml. per 4 ml. of lower layer) and the suspension mixed. For each milliliter of this mixture, 0.33 ml. of 6% Macrodex was added. After stirring, the cels were allowed to sediment for 1 hour at 37° C. The resulting erythrocyte pellet was discarded and the neutrophil enriched supernatant fluid centrifuged at 500 g. for 10 minutes at 4° C. Erythrocytes still present in this cell pellet were lysed by incubating the cells with 5-8 ml. ice-cold distilled water for 30-45 seconds. Subsequently, the volume was made up to 50 ml. by addition of ice-cold buffer and the cells resuspended. The suspension was then centrifuged at 300 g. for 10 minutes at 4° C. The cells were finally resuspended at a cell density of 2×10^7 cells/ml in the assay buffer. This buffer Consisted of Hanks' balanced salt solution and 0.1% ovalbumin (pH 7.3).
# The radio-ligand binding assay was conducted by incubating neutrophils (1×10^7 cells) with 0.1-0.2 nM ^3 H-LTB4 (sp. act. 150-220 Curies/mmol) and test compound (1×10^-5 M and 1×10^-6 M) for 10 minutes at 4° C. The amount of bound ^3 H-LTB4 was then measured and compared with the amount bound in the absence of test compound. The assay was carried out in microcentrifuge tubes by adding first 10 μl test compound dissolved in DMSO, followed by adding 20 μl ^3 H-LTB4 diluted in assay buffer, and finally adding 500 μl of the cell suspension pension. At the end of the 10 minutes incubation, 300 μl of a mixture of dibutyl and dinonyl phthalate (7:2) were added and the tubes centrifuged for 2 minutes in a microcentrifuge. The radioactivity bound to the cell pellet was measured by scintillation spectroscopy. Appropriate corrections for nonspecific bonding of ^3 H-LTB4 were made.
# [1] = drug concentration 10^-5 M, 4° C., 10 minutes
# T1 sequence (Q15722 whole entry): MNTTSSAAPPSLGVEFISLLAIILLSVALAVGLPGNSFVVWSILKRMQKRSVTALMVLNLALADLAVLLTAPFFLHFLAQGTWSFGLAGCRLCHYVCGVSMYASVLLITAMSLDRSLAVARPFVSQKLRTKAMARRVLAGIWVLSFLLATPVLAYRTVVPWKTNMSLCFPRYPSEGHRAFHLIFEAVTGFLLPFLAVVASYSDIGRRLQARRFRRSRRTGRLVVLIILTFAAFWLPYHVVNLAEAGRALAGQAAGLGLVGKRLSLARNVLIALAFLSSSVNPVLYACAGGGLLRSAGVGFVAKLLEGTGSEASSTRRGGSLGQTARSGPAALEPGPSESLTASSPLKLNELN
inhibition at 10 µM [1],"inhibition at 1 µM (4° C., 10 minutes)","inhibition at 0.1 µM (4° C., 10 minutes)",SMILES,inhibition at 10 µM
101%,85%,–,"CCc1cc(C(C)=O)c(O)cc1OCCCCCCC(=O)Nc1nnn[nH]1 [Example 145, 7-(4-Acetyl-2-ethyl-5-hydroxyphenoxy)-N-1H-tetrazol-5-ylheptanamide]",–
43%,22%,–,"CCc1cc(C(C)=O)c(O)cc1OCCCCCN [Example 137, 1-{4-[(5-Aminopentyl)oxy]-5-ethyl-2-hydroxyphenyl}ethanone]",–
97%,59%,–,"C=CCc1cc(C(C)=O)c(O)cc1OCCCCCC(C)(C)O [Example 103, 2-Hydroxy-4-(6-hydroxy-6-methylheptyloxy)-5-allylacetophenone]",–
81%,29%,–,CCc1cc(C(C)=O)c(O)cc1OCCCCCn1cncn1 [Example 146],–
44%,14%,–,"CCc1cc(C(C)=O)c(O)cc1OCc1ccc(C(=O)O)c(O)c1 [Example 148, 4-[(4-Acetyl-2-ethyl-5-hydroxyphenoxy)methyl]-2-hydroxybenzoic acid]",–
97%,65%,6%,"CCc1cc(C(C)=O)c(O)cc1OCCCCCC(C)(C)C(=O)N(C)O [Example 149, 7-(4-Acetyl-2-ethyl-5-hydroxyphenoxy)-N-hydorxy-N,2,2-trimethylheptanamide]",–
89%,48%,–,"CCc1cc(C(C)=O)c(O)cc1OCCCC(C)(C)C#N [Example 133, 5-(4-Acetyl-2ethyl-5-hydroxyphenoxy)-2,2-dimethylpentanitrile]",–
8%,-7%,–,"CC(=O)c1cc(C(C)=O)c(OCCCCC#N)cc1O [Example 16, 5-(2,4-Diacetyl-5-hydroxy-phenoxy)pentanenitrile]",–
71%,23%,–,"CCCc1cc(C(C)=O)c(O)cc1OCCCCNC(C)=O [Example 77, N-[4-(4-Acetyl-5-hydroxy-2-propylphenoxy)-butyl]acetamide]",–
2%,3%,–,"CCOC(=O)c1ccc(COc2cc(O)c(C(C)=O)cc2CC)cc1O [Example 147, 4-[(4-Acetyl-2-ethyl-5-hydroxyphenoxy)methyl]-2-hydroxybenzoic acid, ethyl ester]",–
93%,45%,–,"CCc1cc(C(C)=O)c(O)cc1OCCCC(C)(C)C(=O)O [Example 134, 5-(4-Acetyl-2ethyl-5-hydroxyphenoxy)-2,2-dimethylpentanoic acid]",–
71 to 94%,14 to 59%,–,"CCc1cc(C(C)=O)c(O)cc1OCCCCCCSC [Example 81, 2-Hydroxy-4-[6-(methylthio)hexyloxy]-5-ethylacetophenone]",–
95%,55%,–,"CCc1cc(C(C)=O)c(O)cc1OCCCC(C)(C)C(N)=O [Example 135, 5-(4-Acetyl-2-ethyl-5-hydroxyphenoxy)-2,2-dimethylpentamide]",–
98%,58%,–,"CCc1cc(C(C)=O)c(O)cc1OCCCCCNC(C)=O [Example 138, N-[5-(4-Acetyl-2-ethyl-5-hydroxyphenoxy)-pentyl]acetamide]",–
101%,82%,45%,"CCc1cc(C(C)=O)c(O)cc1OCCCCCC(C)(C)C(N)=O [Example 101, 7-(4-Acetyl-2-ethyl-5-hydroxyphenoxy)-2,2-methylheptanamide]",–
50%,9%,–,"C=CCc1cc(C(C)=O)c(O)cc1OCCCCCC [Example 39, 4-(Hexyloxy)-2-hydroxy-5-allylacetophenone]",–
86%,37%,–,"CCc1cc(C(C)=O)c(O)cc1OCCCCCCC(=O)O [Example 85, 7-(4-Acetyl-2-ethyl-5-hydroxyphenoxy)heptanoio acid]",–
30%,14%,–,"CCCCCc1cc(C(C)=O)c(O)cc1OCCCCC#N [Example 31, 5-(4-Acetyl-5-hydroxy-2-pentylphenoxy)-pentanenitrile]",–

# Continued, compound first:
SMILES,inhibition at 10 µM [1],"inhibition at 1 µM (4° C., 10 minutes)","inhibition at 0.1 µM (4° C., 10 minutes)",inhibition at 10 µM
"C=CCCOc1cc(O)c(C(C)=O)cc1CC=C [Example 45, 4-(3-Butenyloxy)-2-hydroxy-5-allylacetophenone]",51%,15%,–,–
"C=CCc1cc(C(C)=O)c(O)cc1OCCCCc1nnn(C)n1 [Example 120, 2-Hydroxy-4-[4-(2-methyl-2H-tetrazol5-yl)butoxy]-5-allylacetophenone]",97%,55%,–,–
"C=CCc1cc(C(C)=O)c(O)cc1OCCCCN1CCOCC1 [Example 75, 2-Hydroxy-4-[4-(4-morpholino)butoxy]-5-allylacetophenone hydrochloride]",0%,0%,–,–
"CCc1cc(C(=O)CCCC(=O)O)c(O)cc1OCCCCC#N [Example 88, 5-[(4-Cyanobutoxy)-5-ethyl-2-hydroxybenzene]-5-oxopentanoic acid]",19%,-1%,–,–
"C=CCc1cc(C(C)=O)c(O)cc1OCCCCc1nnnn1C [Example 119, 2-Hydroxy-4-[4-(1-methyl-lH-tetrazol-5-yl)-butoxy]-5-allylacetophenone]",57%,13%,–,–
"C=CCc1cc(C(C)=O)c(O)cc1OCCCCCCS(C)(=O)=O [Example 80, 2-hydroxy-4-[6-(methylsulfonyl)-hexyloxy]-5-allylacetophenone]",–,62%,–,100%
"C=CCc1cc(C(C)=O)c(O)cc1OCc1ccc(CC#N)cc1 [Example 71, 4-[(4-Acetyl-5-hydroxy-2-allylphenoxy)-methyl]benzeneacetonitrile]",30%,17%,–,–
"C=CCc1cc(C(C)=O)c(O)cc1OCCCCO [Example 44, 4-(4-Hydroxybutoxy)-5-allyl-2-huydroxy-aoetophenone]",47%,9%,–,–
"C=CCc1cc(C(C)=O)c(O)cc1OCc1cccc(CC#N)c1 [Example 60, 3-[(4-Acetyl-5-hydroxy-2-allylphenoxy)-methyl]benzeneacetonitrile]",12%,6%,–,–
"CSCc1cc(C(C)=O)c(O)cc1OCCCCCCC#N [Example 128, 7-[4-Acetyl-5-hydroxy-2-(methylthiomethyl)-phenoxy]heptanenitrile]",97%,64%,–,–
"C=CCc1cc(C(C)=O)c(O)cc1OCCCCCCCCC#N [Example 23, 9-(4-Aoetyl-5-hydroxy-2-allylphenoxy)-nonanenitrile]",85%,50%,–,–
"CCCc1cc(C(C)=O)c(O)cc1OCCCCN [Example 74, 4-(4-Aminobutoxy)-2-hydroxy-5-propylacetophenone hydrochloride]",0%,0%,–,–
"CCCCCCc1cc(C(C)=O)c(O)cc1OCCCCC#N [Example 29, 5-(4-Acetyl-2-hexyl-5-hydroxyphenoxy)-pentanenitrile]",51%,12%,–,–
"C=CCc1cc(C(C)=O)c(O)cc1OCCCCC#N [Example 139, 5-(4-Acetyl-5-hydroxy-2-allylphenoxy)pentanenitrile]",–,53%,–,92%
"C=CCc1cc(C(C)=O)c(O)cc1OCCCCCC#N [Example 21, 6-(4-Acetyl-5-hydroxy-2-allylphenoxy)-hexanenitrile]",81%,32%,–,–
"CC(=O)c1cc(C)c(OCCCCC#N)cc1O [Example 28, 5-(4-Acetyl-2-methyl-5-hydroxyphenoxy)-pentanenitrile]",77%,32%,–,–
"CCc1cc(C(=O)c2ccc(C(=O)O)cc2)c(O)cc1OCCCCC#N [Example 91, 4[4-(4-Cyanobutoxy)-5-ethyl-2-hydroxybenzoyl]benzoic acid]",26%,20%,–,–
